According to the supplement of paper PMC11208160:

test: recombinant barcode read abundance after kanamycin selection (control-corrected) (log10(CPM+1)); higher = more efficient recombination; sequences stand for … in AGTGCAGAGAAAATCGGCCAGTTTTCTCTGCCTGCAGTCCGCATGCCGT…AGATTTATGCAGCGGACTGCCTTTCTCCCAAAGTGATAAACCGGACAGTATCATGGACCGGTTTTCCCGGTAATCCGTATTTGCAAGGTTGGTTTCACT; site = the 11-nt target
Outline: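 Recombination efficiency comes from barcode counts at recombinant junctions, converted to counts per million, averaged and corrected against the control. Values appear as log10(CPM+1). They were obtained from a pooled E. coli screen in which each oligo paired a target with an IS621 bridge RNA target-binding loop, and cells were plated in duplicate on chloramphenicol/ampicillin LB agar or on chloramphenicol/ampicillin/kanamycin with 0.1 mM IPTG.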
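Also: IS621 recombinase and bridge RNA in Escherichia coli cells.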

Point of comparison: “GTGCCCTCTTGGGTTCTAACCTGTTGCCG (site GTGCCCTCTCG)”, “recombinant barcode read abundance (log10)” value 1.66. Against it:
- GTCTGAGCTTGGGTTCTAACCTGTTGCCT (site GTCTAAGCTAG) — lower, 0.241
- GTCTGAGCTTGGGTTCTAACCTGTTGCCT (site GTCTGAGCTAG) — lower, 0.355
- GTCTTATCTTGGGTTCTAACCTGTTGCCT (site GTCTAATCTAG) — lower, 0.0535
- GTCTTATCTTGGGTTCTAACCTGTTGCCT (site GTCTCATCTAG) — lower, 0.0374
- GTCTTATCTTGGGTTCTAACCTGTTGCCT (site GTCTGATCTAG) — lower, 0.24
- GTCTTATCTTGGGTTCTAACCTGTTGCCT (site GTCTTATCTAG) — lower, 1.14
- GTCTTGACTTGGGTTCTAACCTGTTGCCA (site GTCTTAACTCG) — lower, 0.0812
- GTCTTGACTTGGGTTCTAACCTGTTGCCA (site GTCTTGACTTG) — lower, 0.102
- GTGAAAGCTTGGGTTCTAACCTGTTGCCA (site GTGAAAGCTTG) — lower, 0.73
- GTGAAAGCTTGGGTTCTAACCTGTTGCCA (site GTGGAAGCTTG) — lower, 0.0113
- GTGAACCCTTGGGTTCTAACCTGTTGCAA (site GTGAACCCTTT) — the same, 1.66
- GTGAACCCTTGGGTTCTAACCTGTTGCAA (site TCCGGAGCTCG) — lower, 0.103
- GTGAACCCTTGGGTTCTAACCTGTTGCAG (site GTGAACCCTCT) — higher, 2.11
- GTGAACCCTTGGGTTCTAACCTGTTGCAG (site GTGATCCCTCT) — lower, 0.0104
- GTGAAGACTTGGGTTCTAACCTGTTGCTT (site AACGTACCTCT) — lower, 0.125
- GTGAAGACTTGGGTTCTAACCTGTTGCTT (site GTGAAGACTAA) — lower, 1.41
- GTGACCTCTTGGGTTCTAACCTGTTGCCT (site GCTACCTCTAG) — lower, 0.0896
- GTGACCTCTTGGGTTCTAACCTGTTGCCT (site GTGACCTCTAG) — within 0.2 log units, 1.49
- GTGAGAACTTGGGTTCTAACCTGTTGCCA (site CGTGACCCTCC) — lower, 0.0895
- GTGAGAACTTGGGTTCTAACCTGTTGCCA (site GTGAGAACTTG) — lower, 0.588
- GTGAGCACTTGGGTTCTAACCTGTTGCGG (site GTGAGAGCTCC) — lower, 0.0559
- GTGAGCACTTGGGTTCTAACCTGTTGCGG (site GTGAGCACTCC) — within 0.2 log units, 1.84
- GTGAGGACTTGGGTTCTAACCTGTTGCCA (site GTAACGACTTG) — lower, 0.252
- GTGAGGACTTGGGTTCTAACCTGTTGCCA (site GTGAGGACTTG) — within 0.2 log units, 1.53
- GTGAGGTCTTGGGTTCTAACCTGTTGCTT (site GTGAGGTCTAA) — higher, 2.01
- GTGAGGTCTTGGGTTCTAACCTGTTGCTT (site GTGAGGTCTAC) — lower, 0.229
- GTGAGGTCTTGGGTTCTAACCTGTTGCTT (site GTGAGGTCTAG) — lower, 1.46
- GTGAGGTCTTGGGTTCTAACCTGTTGCTT (site GTGAGGTCTAT) — lower, 1.38
- GTGAGTGCTTGGGTTCTAACCTGTTGCCA (site ATAAGTGCTTG) — lower, 0.475
- GTGAGTGCTTGGGTTCTAACCTGTTGCCA (site GTGAGTGCTTG) — lower, 0.723
- GTGATCCCTTGGGTTCTAACCTGTTGCAG (site GTGAACCCTCT) — lower, 0.184
- GTGATCCCTTGGGTTCTAACCTGTTGCAG (site GTGATCCCTCT) — within 0.2 log units, 1.79
- GTGCAACCTTGGGTTCTAACCTGTTGCCT (site AGTGTCACTCC) — lower, 0.056
- GTGCAACCTTGGGTTCTAACCTGTTGCCT (site GTGCAACCTAG) — lower, 1.34
- GTGCACACTTGGGTTCTAACCTGTTGCCA (site GTGCAAACTAG) — lower, 0.0839
- GTGCACACTTGGGTTCTAACCTGTTGCCA (site GTGCACACTTG) — lower, 0.736
- GTGCCCGCTTGGGTTCTAACCTGTTGCAG (site AAATGACCTAC) — lower, 0.0527
- GTGCCCGCTTGGGTTCTAACCTGTTGCAG (site GTGCCCGCTCT) — lower, 0.961
- GTGCCCTCTTGGGTTCTAACCTGTTGCCG (site GTGCCCGCTCC) — lower, 0.0127
- GTGCCTCCTTGGGTTCTAACCTGTTGCTT (site GTGCCTCCTAA) — lower, 1.01
- GTGCCTCCTTGGGTTCTAACCTGTTGCTT (site GTGTATCCTAA) — lower, 0.0505
- GTGCGCTCTTGGGTTCTAACCTGTTGCCG (site GTGAGCCCTCG) — lower, 0.076
- GTGCGCTCTTGGGTTCTAACCTGTTGCCG (site GTGCGCTCTCG) — within 0.2 log units, 1.49
- GTGCGGACTTGGGTTCTAACCTGTTGCGT (site GTGAGGACTAC) — lower, 0.676
- GTGCGGACTTGGGTTCTAACCTGTTGCGT (site GTGCGGACTAC) — higher, 2.06
- GTGCTCGCTTGGGTTCTAACCTGTTGCCT (site CTGCCCGCTAG) — lower, 0.0812
- GTGCTCGCTTGGGTTCTAACCTGTTGCCT (site GTGCTCGCTAG) — higher, 1.87
- GTGGAATCTTGGGTTCTAACCTGTTGCCT (site GTGAGATCTAG) — lower, 0.307
- GTGGAATCTTGGGTTCTAACCTGTTGCCT (site GTGGAATCTAG) — within 0.2 log units, 1.6
- GTGGACTCTTGGGTTCTAACCTGTTGCTA (site GTGGACTCTTA) — higher, 2.44
- GTGGACTCTTGGGTTCTAACCTGTTGCTA (site GTGTACTCTAA) — lower, 0.0609
- GTGGCCACTTGGGTTCTAACCTGTTGCCT (site GTAGCCACTAG) — higher, 1.86
- GTGGCCACTTGGGTTCTAACCTGTTGCCT (site GTCGCCACTAG) — lower, 0.152
- GTGGCCACTTGGGTTCTAACCTGTTGCCT (site GTGGCCACTAG) — within 0.2 log units, 1.74
- GTGGCCACTTGGGTTCTAACCTGTTGCCT (site GTTGCCACTAG) — lower, 0.229
- GTGGGCACTTGGGTTCTAACCTGTTGCCT (site AGAAAGGCTGC) — lower, 0.166
- GTGGGCACTTGGGTTCTAACCTGTTGCCT (site GTGGGCACTAG) — lower, 0.225
- GTGGTATCTTGGGTTCTAACCTGTTGCCT (site GTGGTAACTAG) — lower, 0.268
- GTGGTATCTTGGGTTCTAACCTGTTGCCT (site GTGGTACCTAG) — lower, 0.396
- GTGGTATCTTGGGTTCTAACCTGTTGCCT (site GTGGTAGCTAG) — lower, 0.312
- GTGGTATCTTGGGTTCTAACCTGTTGCCT (site GTGGTATCTAG) — within 0.2 log units, 1.68
- GTGTACCCTTGGGTTCTAACCTGTTGCAC (site AGTATAACTCA) — lower, 0.132
- GTGTACCCTTGGGTTCTAACCTGTTGCAC (site GTGTACCCTGT) — higher, 2.35
- GTGTACCCTTGGGTTCTAACCTGTTGCGA (site GTGTACCCTAC) — lower, 0.129
- GTGTACCCTTGGGTTCTAACCTGTTGCGA (site GTGTACCCTCC) — lower, 0.0447
- GTGTACCCTTGGGTTCTAACCTGTTGCGA (site GTGTACCCTGC) — lower, 0.0937
- GTGTACCCTTGGGTTCTAACCTGTTGCGA (site GTGTACCCTTC) — higher, 2.35
- GTGTATACTTGGGTTCTAACCTGTTGCCT (site GTATATACTAG) — lower, 1.12
- GTGTATACTTGGGTTCTAACCTGTTGCCT (site GTCTATACTAG) — lower, 0.173
- GTGTATACTTGGGTTCTAACCTGTTGCCT (site GTGTATACTAG) — lower, 1.24
- GTGTATACTTGGGTTCTAACCTGTTGCCT (site GTTTATACTAG) — lower, 0.075
- GTGTCGCCTTGGGTTCTAACCTGTTGCCT (site GTGTCGCCTAC) — lower, 0.224
- GTGTCGCCTTGGGTTCTAACCTGTTGCCT (site GTGTCGCCTAG) — lower, 0.845
- GTGTCGCCTTGGGTTCTAACCTGTTGCGT (site GTGTCGCCTAC) — within 0.2 log units, 1.72
- GTGTCGCCTTGGGTTCTAACCTGTTGCGT (site GTGTCGCCTAG) — lower, 0.0604
- GTGTCTCCTTGGGTTCTAACCTGTTGCAT (site GTGTATCCTAT) — lower, 0.162
- GTGTCTCCTTGGGTTCTAACCTGTTGCAT (site GTGTCTCCTAT) — within 0.2 log units, 1.54
- GTGTCTCCTTGGGTTCTAACCTGTTGCAT (site GTGTGTCCTAT) — lower, 0.457
- GTGTCTCCTTGGGTTCTAACCTGTTGCAT (site GTGTTTCCTAT) — lower, 0.243
- GTGTGTTCTTGGGTTCTAACCTGTTGCCT (site GTGTGTACTAG) — lower, 1.15
- GTGTGTTCTTGGGTTCTAACCTGTTGCCT (site GTGTGTCCTAG) — lower, 0.0466
- GTGTGTTCTTGGGTTCTAACCTGTTGCCT (site GTGTGTGCTAG) — lower, 0
- GTGTGTTCTTGGGTTCTAACCTGTTGCCT (site GTGTGTTCTAG) — lower, 0.726
- GTGTTGCCTTGGGTTCTAACCTGTTGCCT (site GAGTTGCCTAG) — lower, 0.267
- GTGTTGCCTTGGGTTCTAACCTGTTGCCT (site GCGTTGCCTAG) — lower, 0.392
